Results published in ChEMBL document CHEMBL6115036, “Exploration of membrane-active cephalosporin derivatives as potent antibacterial agents against Staphylococcus aureus biofilms and persisters” (Eur J Med Chem, 2025).
Active and inactive are the calls of the source. The calls are words filed in the database; no cut-off is given here.

Legend:
[1] = system: Staphylococcus aureus; assay: Induction of resistance development in drug-resistant Staphylococcus aureus assessed as fold increase in MIC of rifampicin at sub-MIC measured after 20 passages relative to control; type: functional
[2] = system: Staphylococcus aureus; assay: Induction of resistance development in Staphylococcus aureus assessed as fold increase in MIC at sub-MIC measured after 20 passages relative to control; type: functional
[3] = system: Escherichia coli; assay: Antimicrobial activity against Escherichia coli incubated for 16 to 18 hrs by broth dilution assay; type: functional; settings: time 16-18 hrs
[4] = Hemolytic activity in sheep red blood cells incubated for 1 hr; type: toxicity, cell-based, Ovis aries, Erythrocyte
[5] = system: Stenotrophomonas maltophilia; assay: Antimicrobial activity against Stenotrophomonas maltophilia incubated for 16 to 18 hrs by broth dilution assay; type: functional; settings: time 16-18 hrs
[6] = system: Staphylococcus aureus; assay: Induction of resistance development in drug-resistant Staphylococcus aureus assessed as fold increase in MIC of ampicillin sodium at sub-MIC measured after 20 passages relative to control; type: functional
[7] = system: Enterococcus faecalis; assay: Antimicrobial activity against Enterococcus faecalis incubated for 16 to 18 hrs by broth dilution assay; type: functional; settings: time 16-18 hrs
[8] = system: Staphylococcus aureus; assay: Induction of resistance development in drug-resistant Staphylococcus aureus assessed as fold increase in MIC of cefuroxime sodium at sub-MIC measured after 20 passages relative to control; type: functional
[9] = system: Staphylococcus aureus; assay: Antimicrobial activity against Staphylococcus aureus incubated for 16 to 18 hrs by broth dilution assay; type: functional; settings: time 16-18 hrs
[10] = Toxicity in Kunming mouse model of subcutaneous abscess infected with Staphylococcus aureus assessed as histopathological abnormalities in spleen at 5 to 10 mg/kg, sc measured after 48 hrs by H and E staining based analysis; type: organism-based; settings: in vivo, dose 5-10 mg/kg
[11] = system: Staphylococcus aureus; assay: Disruption of cell membrane in Staphylococcus aureus assessed as protein leakage at 32 ug/ml measured after 2 hrs by fluorescence based analysis; type: functional, organism-based; settings: dose 32.0 µg/ml
[12] = system: Staphylococcus aureus; assay: Antibacterial activity against Staphylococcus aureus in presence of 50% FBS; type: functional, organism-based
[13] = system: Staphylococcus aureus; assay: Disruption of cell membrane in Staphylococcus aureus assessed as nucleic acid leakage at 32 ug/ml measured after 2 hrs by fluorescence based analysis; type: functional, organism-based; settings: dose 32.0 µg/ml
[14] = Toxicity in Kunming mouse model of subcutaneous abscess infected with Staphylococcus aureus assessed as histopathological abnormalities in kidney at 5 to 10 mg/kg, sc measured after 48 hrs by H and E staining based analysis; type: organism-based; settings: in vivo, dose 5-10 mg/kg
[15] = Toxicity in Kunming mouse model of subcutaneous abscess infected with Staphylococcus aureus assessed as damage in lung at 5 to 10 mg/kg, sc measured after 48 hrs by H and E staining based analysis; type: organism-based; settings: in vivo, dose 5-10 mg/kg
[16] = system: Staphylococcus aureus; assay: Bactericidal activity against Staphylococcus aureus measured for 3 to 6 hrs in presence of 50% sheep plasma; type: functional, organism-based; settings: time 3-6 hrs
[17] = system: Staphylococcus aureus; assay: Antibacterial activity against Staphylococcus aureus infected in Kunming mouse model of subcutaneous abscess assessed as surviving bacteria in skin tissue at 10 mg/kg, sc measured after 48 hrs relative to control; type: functional
[18] = Toxicity in Kunming mouse model of subcutaneous abscess infected with Staphylococcus aureus assessed as damage in kidney at 5 to 10 mg/kg, sc measured after 48 hrs by H and E staining based analysis; type: organism-based; settings: in vivo, dose 5-10 mg/kg
[19] = Cytotoxicity against human HeLa cells incubated for 24 hrs by CCK8 assay; type: toxicity, cell-based
[20] = system: Staphylococcus aureus; assay: Inhibition of metabolic activity in Staphylococcus aureus incubated for 6 hrs by Alamar blue assay; type: functional, organism-based
[21] = system: Staphylococcus aureus; assay: Induction of resistance development in drug-resistant Staphylococcus aureus assessed as fold increase in MIC of levofloxacin at sub-MIC measured after 20 passages relative to control; type: functional
[22] = system: Staphylococcus aureus; assay: Antibacterial activity against Staphylococcus aureus assessed as effect on quiescent cells at 100 to 200 times MIC incubated for 24 hrs; type: functional, organism-based
[23] = Toxicity in Kunming mouse model of subcutaneous abscess infected with Staphylococcus aureus assessed as damage in heart at 5 to 10 mg/kg, sc measured after 48 hrs by H and E staining based analysis; type: organism-based; settings: in vivo, dose 5-10 mg/kg
[24] = Toxicity in Kunming mouse model of subcutaneous abscess infected with Staphylococcus aureus assessed as histopathological abnormalities in heart at 5 to 10 mg/kg, sc measured after 48 hrs by H and E staining based analysis; type: organism-based; settings: in vivo, dose 5-10 mg/kg
[25] = system: Staphylococcus aureus; assay: Induction of resistance development in drug-resistant Staphylococcus aureus at sub-MIC measured after 20 passages in presence of linezolid; type: functional, organism-based
[26] = Toxicity in Kunming mouse model of subcutaneous abscess infected with Staphylococcus aureus assessed as damage in liver at 5 to 10 mg/kg, sc measured after 48 hrs by H and E staining based analysis; type: organism-based; settings: in vivo, dose 5-10 mg/kg
[27] = system: Staphylococcus aureus; assay: Inhibition of biofilm formation in Staphylococcus aureus assessed as reduction in number of live bacterial count at 16 times MIC incubated for 24 hrs; type: functional
[28] = system: Staphylococcus aureus; assay: Induction of resistance development in drug-resistant Staphylococcus aureus at sub-MIC measured after 20 passages in presence of vancomycin; type: functional, organism-based
[29] = system: Staphylococcus aureus; assay: Induction of resistance development in drug-resistant Staphylococcus aureus at sub-MIC measured after 20 passages in presence of rifampicin; type: functional, organism-based
[30] = system: Staphylococcus aureus; assay: Induction of resistance development in drug-resistant Staphylococcus aureus at sub-MIC measured after 20 passages in presence of norfloxacin; type: functional, organism-based
[31] = system: Staphylococcus aureus; assay: Antibacterial activity against Staphylococcus aureus infected in Kunming mouse model of subcutaneous abscess assessed as decrease in inflammatory cell infiltration in skin tissue at 10 mg/kg, sc measured after 48 hrs by H and E staining based analysis; type: functional, organism-based
[32] = system: Staphylococcus aureus; assay: Induction of resistance development in drug-resistant Staphylococcus aureus at sub-MIC measured after 20 passages in presence of cefuroxime sodium; type: functional, organism-based
[33] = system: Staphylococcus aureus; assay: Induction of resistance development in Staphylococcus aureus at sub-MIC measured after 20 passages; type: functional, organism-based
[34] = system: Staphylococcus aureus; assay: Antibacterial activity against Staphylococcus aureus infected in Kunming mouse model of subcutaneous abscess assessed as reduction in number of bacteria in skin tissue at 5 to 10 mg/kg, sc measured after 48 hrs; type: functional, organism-based; settings: dose 5-10 mg/kg
[35] = system: Staphylococcus aureus; assay: Induction of intracellular ROS accumulation in Staphylococcus aureus at 1 to 4 times MIC incubated overnight by DCFH-DA dye based analysis; type: functional, organism-based
[36] = Toxicity in Kunming mouse model of subcutaneous abscess infected with Staphylococcus aureus assessed as histopathological abnormalities in liver at 5 to 10 mg/kg, sc measured after 48 hrs by H and E staining based analysis; type: organism-based; settings: in vivo, dose 5-10 mg/kg
[37] = system: Staphylococcus aureus; assay: Bactericidal activity against Staphylococcus aureus assessed as reduction in bacterial colony count at 4 to 8 times MIC incubated for 8 hrs by time kill assay; type: functional, organism-based
[38] = system: Staphylococcus aureus; assay: Induction of resistance development in drug-resistant Staphylococcus aureus at sub-MIC measured after 20 passages in presence of levofloxacin; type: functional, organism-based
[39] = Cytotoxicity against HUVEC cells incubated for 24 hrs by CCK8 assay; type: toxicity, cell-based; settings: human
[40] = system: Staphylococcus aureus; assay: Antibacterial activity against Staphylococcus aureus infected in Kunming mouse model of subcutaneous abscess assessed as reduction in bacterial load in skin tissue at 10 mg/kg, sc measured after 48 hrs relative to control; type: functional; set-up: scale not given: the % may be the effect or the level left
[41] = system: Staphylococcus aureus; assay: Antibacterial activity against Staphylococcus aureus infected in Kunming mouse model of subcutaneous abscess assessed as decrease in neutrophil level in skin tissue at 5 mg/kg, sc measured after 48 hrs by H and E staining based analysis; type: functional, organism-based
[42] = system: Staphylococcus aureus; assay: Induction of resistance development in drug-resistant Staphylococcus aureus at sub-MIC measured after 20 passages in presence of ampicillin sodium; type: functional, organism-based
[43] = system: Staphylococcus aureus; assay: Antibacterial activity against Staphylococcus aureus in presence of 50% sheep plasma; type: functional, organism-based
[44] = system: Staphylococcus aureus; assay: Induction of resistance development in drug-resistant Staphylococcus aureus at sub-MIC measured after 20 passages in presence of ciprofloxacin; type: functional, organism-based
[45] = system: Staphylococcus aureus; assay: Inhibition of biofilm formation in Staphylococcus aureus assessed as decrease in bacterial count at 32 times MIC incubated for 24 hrs by CLSM analysis; type: functional, organism-based
[46] = system: Staphylococcus aureus; assay: Antibacterial activity against Staphylococcus aureus infected in Kunming mouse model of subcutaneous abscess assessed as decrease in inflammation in skin tissue at 5 mg/kg, sc measured after 48 hrs by H and E staining based analysis; type: functional, organism-based
[47] = Toxicity in Kunming mouse model of subcutaneous abscess infected with Staphylococcus aureus assessed as damage in spleen at 5 to 10 mg/kg, sc measured after 48 hrs by H and E staining based analysis; type: organism-based; settings: in vivo, dose 5-10 mg/kg
[48] = system: Staphylococcus aureus; assay: Antibacterial activity against rifampicin-induced persistant Staphylococcus aureus assessed as decrease in CFU at 200 times MIC measured for 10 hrs; type: functional, organism-based
[49] = Toxicity in Kunming mouse model of subcutaneous abscess infected with Staphylococcus aureus assessed as histopathological abnormalities in lung at 5 to 10 mg/kg, sc measured after 48 hrs by H and E staining based analysis; type: organism-based; settings: in vivo, dose 5-10 mg/kg

O=C(Cc1ccccc1)N[C@@H]1C(=O)N2C(C(=O)O)=C(C[n+]3ccccc3)CS[C@H]12.[I-]
fold change (FC) [1]: 8
fold change (FC) [2]: 64
MIC [3]: 32 µg/mL
HC50 at 1 h [4]: > 1280 µg/mL
MIC [5]: 64 µg/mL
fold change (FC) [6]: 64
MIC [7]: 16 µg/mL
fold change (FC) [8]: >128
MIC [9]: 0.063 µg/mL

CCCCCCCCCC[n+]1ccc(-c2cc[n+](CC3=C(C(=O)[O-])N4C(=O)[C@@H](NC(=O)Cc5ccccc5)[C@H]4SC3)cc2)cc1.O=C([O-])C(F)(F)F
Activity [10]: Non-toxic
Activity [11]: inactive
Activity [12]: Active; Mic Value Of Compound In Serum Was Equal To Mic In Mhb Medium
Activity [13]: inactive
Activity [14]: Non-toxic
Activity [15]: Non-toxic
Activity [16]: Active
Activity [17]: 0.02%
Activity [18]: Non-toxic
CC50 at 24 h [19]: 26.9 µg/mL
inhibition [20]: Dose-dependent-effect
fold change (FC) [21]: 8
Activity [22]: inactive
Activity [23]: Non-toxic
Activity [24]: Non-toxic
Activity [25]: inactive
Activity [26]: Non-toxic
Activity [27]: ~1 10^3CFU/ml
Activity [28]: inactive
MIC [3]: 128 µg/mL
Activity [29]: inactive
Activity [30]: inactive
Activity [31]: Active; Compound Activity On Skin Was Similar To Healthy Mouse
Activity [32]: inactive
HC50 at 1 h [4]: > 1280 µg/mL
Activity [33]: inactive
Activity [34]: Active
Activity [35]: inactive
Activity [36]: Non-toxic
Activity [37]: Active
Activity [38]: inactive
MIC [5]: 128 µg/mL
CC50 at 24 h [39]: > 64 µg/mL
Activity [40]: 99.98%
Activity [41]: Active
Activity [42]: inactive
Activity [43]: Active; Mic Value Of Compound In Plasma Was Equal To Mic In Mhb Medium
Activity [44]: inactive
inhibition [45]: inactive
Activity [46]: Active
Activity [47]: Non-toxic
Activity [48]: inactive
MIC [7]: 4 µg/mL
Activity [49]: Non-toxic
MIC [9]: 0.063 µg/mL
